Patent publication US12446577B2 (priority 2018, dated 2025)

Tests used:
[1] = system: Phytophthora infestans strain 1813E11; assay type: in vivo; details: 100 ppm
lettuce plants = experiment: Phytotoxicity on lettuce plants after spraying; assay type: in vivo; details: 2.5% pelargonic acid, sprayed until run-off, n = 6, scale 0 to 100%
Method: A neutralization reaction was made with pelargonic acid (>97%) and choline hydroxide (45%) based on the titration curve (FIG. 1). Based on the titration curve, a stock solution of choline pelargonate (29.1% PLA (>97%) and 40.4% Choline hydroxide (45%)) was made by mixing 14.55 mL pelargonic acid with 15.25 mL distilled water and afterwards the addition of 20.2 mL choline hydroxide. The choline pelargonate stock solution was diluted in distilled water to obtain a diluted choline pelargonate composition comprising about 2.5% pelargonic acid. The total concentration of choline pelargonate in the water spray solution was 37.08 g a.i./L (a.i.=active ingredient).
The next step was to assess the phytotoxicity of a composition comprising choline pelargonate on lettuce plants. As a control, plants were treated with water. The plants were also treated with a diluted pelargonic acid composition, including a diluted pelargonic acid solution based on the commercial product Beloukha (Belchim Crop Protection).
Lettuce plants were sprayed with a small hand sprayer until run-off with the respective compositions and incubated at 20° C. Each composition was tested with a setup consisting out of six plants. A visual assessment was made on lettuce plants after spraying. The effect of phytotoxicity (necrosis or discolouration) was scored by a scale from 0 to 100%, with 0% no phytotoxicity and 100% fully phytotoxicity on plants.

Rhizoctonia solani = experiment: Mycelium growth inhibition on PDA (Example 7); assay type: cell-based; details: 3 days at 25° C; for Average mycelium diameter: n = 4
Method: (§1) Strains used for this trial were kept and refreshed on Potato Dextrose Agar (PDA) at 25° C.
(§2) To begin, a quantity of test product was directly added in a certain volume of PDA (about 20 mL/petri dish) (Table 11). Plugs of agar (diameter 10 mm) from one week-old cultures were placed at the centre of the PDA plates. Each object was performed in 4 repetitions. The petri dishes were then incubated at 25° C. in the dark. After 3 and 6 days of incubation, the diameter of the colonies was measured in 2 perpendicular directions. The percentage of inhibition was calculated for each product/concentration compare to the untreated.

Sclerotinia minor = experiment: Mycelium growth inhibition on PDA (Example 7); assay type: cell-based; details: 3 days at 25° C; for Average mycelium diameter: n = 4
Method: as §1, §2

Pythium ultimum = experiment: Mycelium growth inhibition on PDA (Example 7); assay type: cell-based; details: 3 days at 25° C; for Average mycelium diameter: n = 4
Method: as §1, §2

Botrytis cinerea = experiment: Mycelium growth inhibition on PDA (Example 7); assay type: cell-based; details: 3 days at 25° C; for Average mycelium diameter: n = 4
Method: as §1, §2

Sclerotinia sclerotiorum = experiment: Mycelium growth inhibition on PDA (Example 7); assay type: cell-based; details: 3 days at 25° C; for Average mycelium diameter: n = 4
Method: as §1, §2

Plasmopara viticola = Plasmopara viticola grapevine leaf disc test; assay type: in vivo; details: copper hydroxide 2 g/L, preventive spray; 7 days after the artificial inoculation
Method: A stock solution of choline pelargonate (29.1% PLA and 40.4% Choline hydroxide, pH 8.82) was made by mixing 14.55 mL PLA with 15.25 mL distilled water and afterwards the addition of 20.2 mL of Choline hydroxide. The choline pelargonate stock solution (42.04%) was diluted in order to create a solution with a final concentration of choline pelargonate equal to 1 mL/L and 10 mL/L. The two choline pelargonate solutions, water as negative control and copper hydroxide (2 g/L) as positive control were used for this test. For each object 4 Petri plates were prepared and each plate contains 5 grapevine leaf discs (see Table 8 below).
Leaf discs preparation: leaf discs (diameter 19 mm) were prepared from grapevine cuttings (variety Pinot Nero Entav 115) using the young leaves. 5 leaf discs were placed in each Petri Plate on autoclaved paper (4 layers), the paper was previously wetted by adding 8.5 mL of sterile water in each plate. The leaf discs were placed on the paper with the abaxial side upward.
Test products application and pathogen inoculation: leaf discs were treated with the test products at 11.30 A.M (i.e. a preventive application) and the leaves were allowed to dry. The products were sprayed with a small hand sprayer; 5 sprays were applied on each plate. The same day at 16.30 a suspension of P. viticola spores at final concentration of 2*10^5 spore/mL was applied (5 hours after test product application) on the leaf discs. The inoculated plates were incubated overnight in the dark at 25° C. The following day, the leaf discs were dried under the laminar flow and then placed back at 25° C. The disease assessment was done 7 days after the artificial inoculation.

SMILES | % efficacy compared to control (Abbott) (Rhizoctonia solani; 0.042% a.i. in PDA) | Average mycelium diameter (Rhizoctonia solani; 0.042% a.i. in PDA) | % efficacy compared to control (Abbott) (Rhizoctonia solani; 0.42% a.i. in PDA) | Average mycelium diameter (Rhizoctonia solani; 0.42% a.i. in PDA) | % efficacy compared to control (Abbott) (Sclerotinia minor; 0.042% a.i. in PDA) | Average mycelium diameter (Sclerotinia minor; 0.042% a.i. in PDA) | % efficacy compared to control (Abbott) (Sclerotinia minor; 0.42% a.i. in PDA) | Average mycelium diameter (Sclerotinia minor; 0.42% a.i. in PDA) | % efficacy compared to control (Abbott) (Pythium ultimum; 0.042% a.i. in PDA) | Average mycelium diameter (Pythium ultimum; 0.042% a.i. in PDA) | % efficacy compared to control (Abbott) (Pythium ultimum; 0.42% a.i. in PDA) | Average mycelium diameter (Pythium ultimum; 0.42% a.i. in PDA) | % efficacy compared to control (Abbott) (Botrytis cinerea; 0.042% a.i. in PDA) | Average mycelium diameter (Botrytis cinerea; 0.042% a.i. in PDA) | % efficacy compared to control (Abbott) (Botrytis cinerea; 0.42% a.i. in PDA) | Average mycelium diameter (Botrytis cinerea; 0.42% a.i. in PDA) | % efficacy compared to control (Abbott) (Sclerotinia sclerotiorum; 0.042% a.i. in PDA) | Average mycelium diameter (Sclerotinia sclerotiorum; 0.042% a.i. in PDA) | % efficacy compared to control (Abbott) (Sclerotinia sclerotiorum; 0.42% a.i. in PDA) | Average mycelium diameter (Sclerotinia sclerotiorum; 0.42% a.i. in PDA) | also measured
O=[N+]([O-])c1cc(C(F)(F)F)c(Cl)c([N+](=O)[O-])c1Nc1ncc(C(F)(F)F)cc1Cl [Fluazinam] |  |  |  |  |  |  |  |  |  |  |  |  |  |  |  |  |  |  |  |  | Disease severity (%) on potato leaf discs, Mean ([1]; mean of 5 leaf discs, six days after inoculation): 0%; efficacy ([1]; potato leaf discs): 100%; Disease severity (%) on potato leaf discs ([1]; single leaf discs a-e, six days after inoculation): 0%
CCCCCCCCC(=O)O [Pelargonic acid, pelargonic acid, reference compound] |  |  |  |  |  |  |  |  |  |  |  |  |  |  |  |  |  |  |  |  | Phytotoxicity (%) evaluation on lettuce plants (lettuce plants; 0 DAA): 0.00%; Phytotoxicity (%) evaluation on lettuce plants (lettuce plants; 1 DAA): 60.00%; Phytotoxicity (%) evaluation on lettuce plants (lettuce plants; 2 DAA): 60.83%; Phytotoxicity (%) evaluation on lettuce plants (lettuce plants; 7 DAA): 70.00%
CCCCCCCCCC(=O)[O-].C[N+](C)(C)CCO [TMAD, choline decanoate] | 48% | 27.3 ± 6.9 mm | 99% | 0.4 ± 0.8 mm | 98% | 1.5 ± 1.8 mm | 99% | 0.5 ± 0.6 mm | 100% | 0.0 ± 0.0 mm | 100% | 0.0 ± 0.0 mm | 84% | 7.0 ± 10.7 mm | 95% | 2.0 ± 4.0 mm | 97% | 2.1 ± 1.7 mm | 100% | 0.0 ± 0.0 mm | 
CCCCCCCC(=O)[O-].C[N+](C)(C)CCO [TMAO, choline octanoate] | 64% | 18.9 ± 3.8 mm | 100% | 0.0 ± 0.0 mm | 96% | 2.5 ± 2.9 mm | 100% | 0.0 ± 0.0 mm | 100% | 0.0 ± 0.0 mm | 100% | 0.0 ± 0.0 mm | 72% | 12.1 ± 11.0 mm | 100% | 0.0 ± 0.0 mm | 98% | 1.3 ± 0.3 mm | 100% | 0.0 ± 0.0 mm | 
[Cu+2].[OH-].[OH-] [copper, copper hydroxide, reference compound] |  |  |  |  |  |  |  |  |  |  |  |  |  |  |  |  |  |  |  |  | disease symptoms on the leaf discs (Plasmopara viticola): did not show any disease symptoms
